Measured values as given in patent US12570642B2, “GLP-IR modulating compounds” (Gilead Sciences, Inc., priority 2021, dated 2026).

Molecular target: GLP-1R (Homo sapiens, UniProt P43220)
Experiment: GLP-1R Activation - cAMP Assay
Assay type: cell-based
Settings: cAMP increase in CHO cells stably expressing GLP-1R; each compound run on one of the two cAMP assays (Assay 1 or Assay 2, not specified)
Experimental: GLP-1R Activation—cAMP Assay 1
GLP-1R activation by compounds of the present disclosure were quantified by measuring cAMP increase in CHO cells stably expressing GLP-1R (MultiSpan product #C1267-1a). The cells were harvested and plated in growth medium (DMEM/F-12 (Corning product #10-090-CV) supplemented with 10% FBS (HyClone product #SH30071-03), penicillin/streptomycin (Corning product #30-002CI) and 10 μg/ml puromycin (Gibco product #A11138-03)) at 1,000 cells/well in a 384-well plate (Greiner product #781080). The cells were then incubated overnight at 37° C., 5% CO2. The next day, the medium was removed and the cells were washed with DPBS (Corning product #21-031-CM) before adding the assay medium (HBSS, Corning product #21-023-CV) with 20 mM Hepes (Gibco product #15630-080) and 0.1% BSA (Rockland Immunochemicals product #BSA-1000)). Following the medium change, the cells were incubated for 1 hour at 37° C., 5% CO2. The tested GLP-1 compound was added to the cells in a 10-point dose response followed by a 30 minutes incubation at 37° C., 5% CO2. cAMP concentration increase was then detected using Cisbio's cAMP Gs Dynamic Kit (product #62AM4PEC) according to the manufacturer's protocol. The response was plotted against the log of the agonist concentration and fitted to a sigmoidal equation to determine the EC50.

Chain of GLP-1R (P43220 24-463): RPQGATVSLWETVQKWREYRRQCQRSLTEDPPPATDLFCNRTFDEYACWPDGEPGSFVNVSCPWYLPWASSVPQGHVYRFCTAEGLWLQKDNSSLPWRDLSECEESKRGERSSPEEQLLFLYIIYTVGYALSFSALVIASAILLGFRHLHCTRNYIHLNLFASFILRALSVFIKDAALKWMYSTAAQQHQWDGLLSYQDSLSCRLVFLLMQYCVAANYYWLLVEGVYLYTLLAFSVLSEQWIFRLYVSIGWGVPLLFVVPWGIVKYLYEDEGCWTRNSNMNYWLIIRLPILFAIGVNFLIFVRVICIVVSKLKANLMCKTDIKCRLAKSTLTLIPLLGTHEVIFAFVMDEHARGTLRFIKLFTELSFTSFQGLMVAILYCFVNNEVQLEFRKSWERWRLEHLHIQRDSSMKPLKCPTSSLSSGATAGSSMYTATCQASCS

Structure (SMILES) | EC50
C[C@@H]1COC[C@H]1n1c(Cc2cc(F)c(-c3cccc(OCc4ccc(C#N)cc4F)n3)cc2F)nc2ccc(C(=O)O)cc21 (racemic) [Example 266, 2-(4-(6-((4-cyano-2-fluorobenzyl)oxy)pyridin-2-yl)-2,5-difluorobenzyl)-1-((3S,4S)-4-methyltetrahydrofuran-3-yl)-1H-benzo[d]imidazole-6-carboxylic acid] | 0.363 nM
N#Cc1ccc(COc2cccc(-c3cc(F)c(Cc4nc5ccc(C(=O)O)cc5n4[C@@H]4COC[C@H]4C(F)F)cc3F)n2)c(F)c1 (racemic) [Example 269, 2-(4-(6-((4-cyano-2-fluorobenzyl)oxy)pyridin-2-yl)-2,5-difluorobenzyl)-1-((3S,4S)-4-(difluoromethyl)tetrahydrofuran-3-yl)-1H-benzo[d]imidazole-6-carboxylic acid] | 0.164 nM
N#Cc1ccc(COc2cccc(-c3cc(F)c(Cc4nc5ccc(C(=O)O)cc5n4[C@@H]4COC[C@@H]4OCC(F)F)cc3F)n2)c(F)c1 (racemic) [Example 412, 2-(4-(6-((4-cyano-2-fluorobenzyl)oxy)pyridin-2-yl)-2,5-difluorobenzyl)-1-((3R,4R)-4-(2,2-difluoroethoxy)tetrahydrofuran-3-yl)-1H-benzo[d]imidazole-6-carboxylic acid] | 0.462 nM
C[C@@H]1COC[C@@H]1n1c(Cc2cc(F)c(-c3cccc(OCc4ccc(C#N)cc4F)n3)cc2F)nc2ccc(C(=O)O)cc21 (racemic) [Example 505, 2-(4-(6-((4-cyano-2-fluorobenzyl)oxy)pyridin-2-yl)-2,5-difluorobenzyl)-1-((3R,4S)-4-methyltetrahydrofuran-3-yl)-1H-benzo[d]imidazole-6-carboxylic acid] | 0.043 nM
COC[C@H]1COC[C@H]1n1c(Cc2cc(F)c(-c3cccc(OCc4ccc(C#N)cc4F)n3)cc2F)nc2ccc(C(=O)O)cc21 (single isomer, unassigned) [Example 176A] | 0.085 nM
N#Cc1ccc(COc2cccc(-c3cc(F)c(Cc4nc5ccc(C(=O)O)cc5n4[C@H]4COC[C@H]4C(F)F)cc3F)n2)c(F)c1 (single isomer, unassigned) [Example 234] | 0.448 nM
CO[C@H]1COCC1n1c(Cc2cc(F)c(-c3cccc(OCc4ccc(C#N)cc4F)n3)cc2F)nc2c(F)cc(C(=O)O)cc21 (single isomer, unassigned) [Example 238] | 0.1 nM
N#Cc1ccc(COc2cccc(-c3cc(F)c(Cc4nc5ccc(C(=O)O)cc5n4[C@H]4COCC45CC5)cc3F)n2)c(F)c1 (single isomer, unassigned) [Example 259] | 0.578 nM
N#Cc1ccc(COc2cccc(-c3cc(F)c(Cc4nc5ccc(C(=O)O)cc5n4[C@@H]4COCC45CC5)cc3F)n2)c(F)c1 (single isomer, unassigned) [Example 260] | 0.411 nM
CO[C@@H]1COC[C@@H]1n1c(Cc2cc(F)c(-c3cccc(OCc4ccc(C#N)cc4F)n3)cc2F)nc2ccc(C(=O)O)cc21 (single isomer, unassigned) [Example 275] | 0.168 nM
CC1(C)COC[C@H]1n1c(Cc2cc(F)c(-c3cccc(OCc4ncc(Cl)cc4F)n3)cc2F)nc2ccc(C(=O)O)cc21 (single isomer, unassigned) [Example 289A] | 0.122 nM
CC1(C)COC[C@@H]1n1c(Cc2cc(F)c(-c3cccc(OCc4ncc(Cl)cc4F)n3)cc2F)nc2ccc(C(=O)O)cc21 (single isomer, unassigned) [Example 289B] | 0.931 nM
CO[C@]1(C)COC[C@H]1n1c(Cc2cc(F)c(-c3cccc(OCc4ccc(C#N)cc4F)n3)cc2F)nc2ccc(C(=O)O)cc21 (single isomer, unassigned) [Example 312] | 0.397 nM
CO[C@@]1(C)COC[C@@H]1n1c(Cc2cc(F)c(-c3cccc(OCc4ccc(C#N)cc4F)n3)cc2F)nc2ccc(C(=O)O)cc21 (single isomer, unassigned) [Example 313] | 1.14 nM
CC1(C)COC[C@H]1n1c(Cc2cc(F)c(-c3cccc(OCc4ccc(C(F)F)cc4F)n3)cc2F)nc2ccc(C(=O)O)cc21 (single isomer, unassigned) [Example 383A] | 0.747 nM

Next, values leading:

EC50 | Structure (SMILES)
0.055 nM | N#Cc1ccc(COc2cccc(-c3cc(F)c(Cc4nc5ccc(C(=O)O)cc5n4[C@@H]4COC[C@@H]4C(F)F)cc3F)n2)c(F)c1 (racemic) [Example 267, 2-(4-(6-((4-cyano-2-fluorobenzyl)oxy)pyridin-2-yl)-2,5-difluorobenzyl)-1-((4R)-4-(difluoromethyl)tetrahydrofuran-3-yl)-1H-benzo[d]imidazole-6-carboxylic acid]
6090 nM | CC12CC(n3c(Cc4cc(F)c(-c5cccc(OCc6ccc(C#N)cc6F)n5)cc4F)nc4ccc(C(=O)O)cc43)(CO1)C2 (racemic) [Example 270, 2-(4-(6-((4-cyano-2-fluorobenzyl)oxy)pyridin-2-yl)-2,5-difluorobenzyl)-1-((1s,4s)-1-methyl-2-oxabicyclo[2.1.1]hexan-4-yl)-1H-benzo[d]imidazole-6-carboxylic acid]
2.11 nM | N#Cc1ccc(COc2cccc(-c3cc(F)c(Cc4nc5ccc(C(=O)O)cc5n4C[C@@]45CO[C@@H](CCO4)C5)cc3F)n2)c(F)c1 (racemic) [Example 272, 1-(((5S)-2,6-dioxabicyclo[3.2.1]octan-1-yl)methyl)-2-(4-(6-((4-cyano-2-fluorobenzyl)oxy)pyridin-2-yl)-2,5-difluorobenzyl)-1H-benzo[d]imidazole-6-carboxylic acid]
0.421 nM | O=C(O)c1ccc2nc(Cc3cc(F)c(-c4cccc(OCc5ccc(Cl)cc5F)n4)cc3F)n(C3COC4CC3C4)c2c1 (racemic) [Example 407, 1-((4R)-2-oxabicyclo[3.1.1]heptan-4-yl)-2-(4-(6-((4-chloro-2-fluorobenzyl)oxy)pyridin-2-yl)-2,5-difluorobenzyl)-1H-benzo[d]imidazole-6-carboxylic acid]
1.33 nM | N#Cc1ccc(COc2cccc(-c3cc(F)c(Cc4nc5ccc(C(=O)O)cc5n4[C@@H]4COC[C@@H]4OC4CC4)cc3F)n2)c(F)c1 (racemic) [Example 411, 2-(4-(6-((4-cyano-2-fluorobenzyl)oxy)pyridin-2-yl)-2,5-difluorobenzyl)-1-((3R,4R)-4-cyclopropoxytetrahydrofuran-3-yl)-1H-benzo[d]imidazole-6-carboxylic acid]
0.58 nM | Cn1cc(-c2cc(F)c(COc3cccc(-c4cc(F)c(Cc5nc6ccc(C(=O)O)cc6n5[C@@H]5COCC5(C)C)cc4F)n3)cn2)cn1 (single isomer, unassigned) [Example 58]
0.748 nM | COC[C@@H]1COC[C@@H]1n1c(Cc2cc(F)c(-c3cccc(OCc4ccc(C#N)cc4F)n3)cc2F)nc2ccc(C(=O)O)cc21 (single isomer, unassigned) [Example 176B]
3.11 nM | N#Cc1ccc(COc2cccc(-c3cc(F)c(Cc4nc5ccc(C(=O)O)cc5n4[C@@H]4COC[C@@H]4C(F)F)cc3F)n2)c(F)c1 (single isomer, unassigned) [Example 233]
0.04 nM | CO[C@@H]1COCC1n1c(Cc2cc(F)c(-c3cccc(OCc4ccc(C#N)cc4F)n3)cc2F)nc2c(F)cc(C(=O)O)cc21 (single isomer, unassigned) [Example 239]
4.08 nM | N#Cc1ccc(COc2cccc(-c3cc(F)c(Cc4nc5ccc(C(=O)O)cc5n4[C@@H]4COC[C@H]4C(F)F)cc3F)n2)c(F)c1 (single isomer, unassigned) [Example 261]
1.07 nM | N#Cc1ccc(COc2cccc(-c3cc(F)c(Cc4nc5ccc(C(=O)O)cc5n4[C@H]4COC[C@@H]4C(F)F)cc3F)n2)c(F)c1 (single isomer, unassigned) [Example 262]
0.108 nM | CO[C@H]1COC[C@H]1n1c(Cc2cc(F)c(-c3cccc(OCc4ccc(C#N)cc4F)n3)cc2F)nc2ccc(C(=O)O)cc21 (single isomer, unassigned) [Example 276]
0.063 nM | COc1cc(Cl)ncc1COc1cccc(-c2cc(F)c(Cc3nc4ccc(C(=O)O)cc4n3[C@@H]3COCC3(C)C)cc2F)n1 (single isomer, unassigned) [Example 290A]
0.764 nM | COc1cc(Cl)ncc1COc1cccc(-c2cc(F)c(Cc3nc4ccc(C(=O)O)cc4n3[C@H]3COCC3(C)C)cc2F)n1 (single isomer, unassigned) [Example 290B]
0.064 nM | CO[C@@]1(C)COC[C@H]1n1c(Cc2cc(F)c(-c3cccc(OCc4ccc(C#N)cc4F)n3)cc2F)nc2ccc(C(=O)O)cc21 (single isomer, unassigned) [Example 311A]
0.159 nM | CO[C@]1(C)COC[C@@H]1n1c(Cc2cc(F)c(-c3cccc(OCc4ccc(C#N)cc4F)n3)cc2F)nc2ccc(C(=O)O)cc21 (single isomer, unassigned) [Example 311B, 2-[[4-[6-[(4-cyano-2-fluoro-phenyl)methoxy]-2-pyridyl]-2,5-difluoro-phenyl]methyl]-3-[4-methoxy-4-methyl-tetrahydrofuran-3-yl]benzimidazole-5-carboxylic Acid]
0.574 nM | CC1(C)COC[C@@H]1n1c(Cc2ccc(-c3cccc(OCc4ccc(C#N)cc4F)n3)cc2F)nc2ccc(C(=O)O)cc21 (single isomer, unassigned) [Example 379]
0.096 nM | CC1(C)COC[C@@H]1n1c(Cc2ccc(-c3cccc(OCc4ccc(C#N)cc4F)n3)cc2F)nc2ccc(C(=O)O)cc21 (single isomer, unassigned) [Example 380]
